Assays:
global ischemia = details: noncompetitive AMPA receptor antagonist; LaPeillet et al.; cited from earlier work
[1] = test system: global and focal ischemic damage; details: competitive AMPA receptor antagonist; Sheardown et al., Buchan et al., LePeillet et al.; cited from earlier work

melting point [°C] | Structure (SMILES) | further results
151 to 153 | Cc1nc(CCc2nc3ccc(F)cc3c(=O)n2-c2cccnc2C)cs1 | 
145 to 146 | CS(=O)(=O)O.Cc1nc(C=Cc2nc3ccc(F)cc3c(=O)n2-c2cccnc2C)cs1 (single isomer, unassigned) | 
 | CC1=NN=C(c2ccc(N)cc2)c2cc3c(cc2C1)OCO3 [GKYI 52466] | neuroprotection in rat global ischemia models (global ischemia): effective neuroprotective agent
 | NS(=O)(=O)c1cccc2c1c([N+](=O)[O-])cc1nc(O)c(O)nc12 [NBQX, 2,3-dihydroxy-6-nitro-7-sulfamoylbenzo[f-]quinoxaline] | prevention of global and focal ischemic damage [1]: effective in preventing global and focal ischemic damage

— patent publication US6380204B1, “Atropisomers of 3-heteroaryl-4(3H)-quinazolinones for the treatment of neurodegenerative and CNS-trauma related conditions” (Pfizer INC, priority 1997, dated 2002)
